{"source": "paper PMC6270996", "about": "“Capsaicin: A Potent Inhibitor of Carbonic Anhydrase Isoenzymes” (Molecules, 2014)", "key": {"[1]": {"biological_target": "T1, human carbonic anhydrase I (hCA I) (Homo sapiens, UniProt P00915)", "T1 construct": "gene CA1; native enzyme purified from human erythrocytes", "T1 sequence (P00915 2-261)": "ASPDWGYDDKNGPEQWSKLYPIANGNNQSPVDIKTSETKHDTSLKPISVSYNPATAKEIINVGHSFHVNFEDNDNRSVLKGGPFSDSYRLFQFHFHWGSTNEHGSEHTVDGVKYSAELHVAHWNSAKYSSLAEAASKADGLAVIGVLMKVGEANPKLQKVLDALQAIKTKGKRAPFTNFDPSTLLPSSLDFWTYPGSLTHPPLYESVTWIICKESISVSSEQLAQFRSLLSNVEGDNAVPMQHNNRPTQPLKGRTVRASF", "experiment": "esterase assay (p-nitrophenyl acetate hydrolysis, […] nm), Lineweaver-Burk", "type": "biochemical"}, "[2]": {"biological_target": "T2, human carbonic anhydrase II (hCA II) (Homo sapiens, UniProt P00918)", "T2 construct": "gene CA2; native enzyme purified from human erythrocytes", "experiment": "esterase assay (p-nitrophenyl acetate hydrolysis, […] nm), Lineweaver-Burk", "type": "biochemical"}}}
{"smiles": "COc1cc(CNC(=O)CCCC/C=C/C(C)C)ccc1O", "note": "[capsaicin, trans-8-methyl-N-vanillyl-6-nonenamide]", "values": [{"measurement": "Ki", "setting": "[1]", "value": "696 ± 59.4", "unit": "µM"}, {"measurement": "Ki", "setting": "[2]", "value": "208 ± 14.4", "unit": "µM"}]}
